# Assay results taken from patent US11208412B2 (DAEGU-GYEONGBUK MEDICAL INNOVATION FOUNDATION, priority 2017, dated 2021).
# What was measured:
# Assay in all cases: Kinase selectivity, DiscoverX scanMAX Kinase assay panel (% control)
# Type in all cases: binding
# [1] = target: T1, kinases of the scanMAX Kinase assay panel (Homo sapiens, UniProt Q13554); conditions: CAMK2B; 1 uM
# T1 construct: purchased DiscoverX Co. (contract measurement) scanMAX Kinase assay panel
# In short: (§1)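 Each enzyme is treated with drug at 1 uM in DMSO, then signal is scaled between a positive control (0%) and DMSO (100%) to give % control. Kinases with % control under 35% are scored as inhibited.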
# [2] = target: T2, kinases of the scanMAX Kinase assay panel (Homo sapiens, UniProt P07947); conditions: kinase YES; 1 uM in DMSO
# T2 construct: purchased DiscoverX Co. (contract measurement) scanMAX Kinase assay panel
# In short: as §1
# [3] = target: T3, kinases of the scanMAX Kinase assay panel (Homo sapiens, UniProt Q86V86); conditions: PIM3; 1 uM
# T3 construct: purchased DiscoverX Co. (contract measurement) scanMAX Kinase assay panel
# In short: as §1
# [4] = target: T4, kinases of the scanMAX Kinase assay panel (Homo sapiens, UniProt O43353); conditions: kinase RIPK2; 1 uM in DMSO
# T4 construct: purchased DiscoverX Co. (contract measurement) scanMAX Kinase assay panel
# In short: as §1
# [5] = target: T5, kinases of the scanMAX Kinase assay panel (Homo sapiens, UniProt P07948); conditions: LYN; 1 uM
# T5 construct: purchased DiscoverX Co. (contract measurement) scanMAX Kinase assay panel
# In short: as §1
# [6] = target: T6, kinases of the scanMAX Kinase assay panel (Homo sapiens, UniProt Q9UEE5); conditions: DRAK1; 1 uM
# T6 construct: purchased DiscoverX Co. (contract measurement) scanMAX Kinase assay panel
# T6 sequence (Q9UEE5 1-414): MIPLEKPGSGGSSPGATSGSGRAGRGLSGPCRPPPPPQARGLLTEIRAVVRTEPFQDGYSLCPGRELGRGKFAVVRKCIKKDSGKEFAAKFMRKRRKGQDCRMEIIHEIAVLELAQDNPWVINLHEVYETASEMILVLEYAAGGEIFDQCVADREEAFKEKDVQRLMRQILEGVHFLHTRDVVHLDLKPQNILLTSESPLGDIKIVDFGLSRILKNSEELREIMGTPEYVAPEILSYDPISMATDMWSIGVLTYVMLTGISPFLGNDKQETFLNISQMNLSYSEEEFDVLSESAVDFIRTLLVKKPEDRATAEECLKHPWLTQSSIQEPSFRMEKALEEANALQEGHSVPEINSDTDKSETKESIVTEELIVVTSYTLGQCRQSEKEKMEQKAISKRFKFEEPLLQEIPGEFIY
# In short: as §1
# [7] = target: T7, kinases of the scanMAX Kinase assay panel (Homo sapiens, UniProt P33981); conditions: kinase TTK; 1 uM in DMSO
# T7 construct: purchased DiscoverX Co. (contract measurement) scanMAX Kinase assay panel
# T7 sequence (P33981 1-857): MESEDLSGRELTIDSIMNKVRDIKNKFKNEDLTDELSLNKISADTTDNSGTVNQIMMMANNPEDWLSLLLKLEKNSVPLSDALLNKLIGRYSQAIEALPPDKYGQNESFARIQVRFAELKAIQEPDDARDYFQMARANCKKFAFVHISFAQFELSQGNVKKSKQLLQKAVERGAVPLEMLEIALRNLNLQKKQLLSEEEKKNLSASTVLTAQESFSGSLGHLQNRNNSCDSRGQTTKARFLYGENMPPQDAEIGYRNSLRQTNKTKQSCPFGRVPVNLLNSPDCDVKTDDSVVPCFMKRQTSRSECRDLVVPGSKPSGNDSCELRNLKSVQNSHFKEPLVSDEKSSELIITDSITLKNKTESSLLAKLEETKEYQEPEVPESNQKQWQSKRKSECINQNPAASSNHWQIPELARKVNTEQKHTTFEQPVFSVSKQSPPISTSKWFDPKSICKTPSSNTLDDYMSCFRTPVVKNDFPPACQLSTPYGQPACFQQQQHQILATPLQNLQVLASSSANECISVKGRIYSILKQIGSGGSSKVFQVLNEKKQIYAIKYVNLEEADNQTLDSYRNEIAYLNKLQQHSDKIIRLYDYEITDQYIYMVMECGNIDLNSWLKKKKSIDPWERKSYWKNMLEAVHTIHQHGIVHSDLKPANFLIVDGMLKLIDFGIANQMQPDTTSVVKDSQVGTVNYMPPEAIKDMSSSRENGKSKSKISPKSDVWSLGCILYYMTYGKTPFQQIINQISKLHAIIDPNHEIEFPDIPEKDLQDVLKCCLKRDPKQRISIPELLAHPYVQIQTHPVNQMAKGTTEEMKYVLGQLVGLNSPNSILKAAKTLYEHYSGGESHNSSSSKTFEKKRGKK
# In short: as §1
# [8] = target: T8, kinases of the scanMAX Kinase assay panel (Homo sapiens, UniProt Q2M2I8); conditions: AAK1; 1 uM
# T8 construct: purchased DiscoverX Co. (contract measurement) scanMAX Kinase assay panel
# In short: as §1
# [9] = target: T9, kinases of the scanMAX Kinase assay panel (Homo sapiens, UniProt Q9UBF8); conditions: PIK4CB; 1 uM
# T9 construct: purchased DiscoverX Co. (contract measurement) scanMAX Kinase assay panel
# In short: as §1
# [10] = target: T10, kinases of the scanMAX Kinase assay panel (Homo sapiens, UniProt Q9BX84); conditions: kinase TRPM6; 1 uM in DMSO
# T10 construct: purchased DiscoverX Co. (contract measurement) scanMAX Kinase assay panel
# In short: as §1
# [11] = target: T11, kinases of the scanMAX Kinase assay panel (Homo sapiens, UniProt P27037); conditions: ACVR2A; 1 uM
# T11 construct: purchased DiscoverX Co. (contract measurement) scanMAX Kinase assay panel
# In short: as §1
# [12] = target: T12, kinases of the scanMAX Kinase assay panel (Homo sapiens, UniProt P00533, G719C); conditions: EGFR(G719C); 1 uM
# T12 construct: purchased DiscoverX Co. (contract measurement) scanMAX Kinase assay panel
# In short: as §1
# [13] = target: T13, kinases of the scanMAX Kinase assay panel (Homo sapiens, UniProt P00519); conditions: 1 uM
# T13 construct: purchased DiscoverX Co. (contract measurement) scanMAX Kinase assay panel
# In short: as §1
# [14] = target: T14, kinases of the scanMAX Kinase assay panel (Homo sapiens, UniProt P30291); conditions: kinase WEE1; 1 uM in DMSO
# T14 construct: purchased DiscoverX Co. (contract measurement) scanMAX Kinase assay panel
# In short: as §1
# T11 sequence (P27037 20-513): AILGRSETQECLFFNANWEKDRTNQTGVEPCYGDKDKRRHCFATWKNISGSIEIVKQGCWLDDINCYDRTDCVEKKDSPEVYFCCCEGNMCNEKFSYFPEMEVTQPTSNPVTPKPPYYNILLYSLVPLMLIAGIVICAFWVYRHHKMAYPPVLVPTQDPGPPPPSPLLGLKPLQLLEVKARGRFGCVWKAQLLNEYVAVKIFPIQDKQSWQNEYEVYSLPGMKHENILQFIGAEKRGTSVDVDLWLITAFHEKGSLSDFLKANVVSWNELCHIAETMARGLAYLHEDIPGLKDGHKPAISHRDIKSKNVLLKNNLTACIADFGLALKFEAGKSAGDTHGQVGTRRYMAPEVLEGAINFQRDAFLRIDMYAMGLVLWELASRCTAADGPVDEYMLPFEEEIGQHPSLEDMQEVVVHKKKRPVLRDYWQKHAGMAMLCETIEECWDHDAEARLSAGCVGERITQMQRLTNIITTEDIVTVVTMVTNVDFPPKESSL
# T5 sequence (P07948 whole entry): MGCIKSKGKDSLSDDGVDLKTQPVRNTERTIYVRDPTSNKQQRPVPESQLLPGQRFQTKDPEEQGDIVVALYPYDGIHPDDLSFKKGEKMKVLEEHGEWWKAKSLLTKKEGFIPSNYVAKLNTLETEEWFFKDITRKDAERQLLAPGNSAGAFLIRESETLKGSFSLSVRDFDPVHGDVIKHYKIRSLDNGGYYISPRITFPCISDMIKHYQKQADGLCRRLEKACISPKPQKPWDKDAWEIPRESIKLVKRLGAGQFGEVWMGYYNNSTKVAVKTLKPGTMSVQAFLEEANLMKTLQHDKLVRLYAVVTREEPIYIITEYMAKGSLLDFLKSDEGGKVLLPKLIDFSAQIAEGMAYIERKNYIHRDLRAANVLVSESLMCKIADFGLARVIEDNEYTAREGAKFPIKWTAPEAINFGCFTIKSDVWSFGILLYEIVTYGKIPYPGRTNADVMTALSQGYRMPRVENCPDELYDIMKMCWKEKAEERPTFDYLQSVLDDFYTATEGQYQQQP
# T13 sequence (P00519 whole entry): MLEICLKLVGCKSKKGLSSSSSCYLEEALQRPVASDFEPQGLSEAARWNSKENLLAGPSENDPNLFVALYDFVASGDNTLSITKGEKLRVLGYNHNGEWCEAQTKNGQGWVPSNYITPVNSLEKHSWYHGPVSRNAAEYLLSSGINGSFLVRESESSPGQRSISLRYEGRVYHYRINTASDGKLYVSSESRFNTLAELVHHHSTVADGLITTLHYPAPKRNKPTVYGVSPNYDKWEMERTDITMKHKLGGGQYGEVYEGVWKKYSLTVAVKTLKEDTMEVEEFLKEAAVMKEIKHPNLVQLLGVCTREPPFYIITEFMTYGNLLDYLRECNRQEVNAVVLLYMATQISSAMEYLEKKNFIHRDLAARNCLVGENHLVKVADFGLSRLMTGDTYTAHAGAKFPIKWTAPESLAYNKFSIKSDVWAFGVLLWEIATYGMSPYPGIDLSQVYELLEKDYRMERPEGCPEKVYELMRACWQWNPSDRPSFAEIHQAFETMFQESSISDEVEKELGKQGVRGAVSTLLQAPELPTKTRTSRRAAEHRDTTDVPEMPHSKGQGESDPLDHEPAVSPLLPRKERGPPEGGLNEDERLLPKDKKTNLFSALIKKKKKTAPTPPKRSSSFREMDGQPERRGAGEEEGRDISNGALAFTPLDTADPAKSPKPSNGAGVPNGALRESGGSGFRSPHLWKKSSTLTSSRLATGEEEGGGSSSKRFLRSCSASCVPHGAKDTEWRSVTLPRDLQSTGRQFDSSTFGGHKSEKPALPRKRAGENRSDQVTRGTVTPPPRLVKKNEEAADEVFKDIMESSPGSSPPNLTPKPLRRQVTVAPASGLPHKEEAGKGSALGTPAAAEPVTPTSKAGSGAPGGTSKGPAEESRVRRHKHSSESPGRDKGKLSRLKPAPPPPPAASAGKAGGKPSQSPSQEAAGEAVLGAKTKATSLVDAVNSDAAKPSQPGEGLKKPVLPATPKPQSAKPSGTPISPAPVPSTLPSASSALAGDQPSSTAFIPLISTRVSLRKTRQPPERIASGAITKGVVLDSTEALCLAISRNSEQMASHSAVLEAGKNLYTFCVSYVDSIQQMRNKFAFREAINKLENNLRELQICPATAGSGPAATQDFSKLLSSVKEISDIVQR
# T2 sequence (P07947 whole entry): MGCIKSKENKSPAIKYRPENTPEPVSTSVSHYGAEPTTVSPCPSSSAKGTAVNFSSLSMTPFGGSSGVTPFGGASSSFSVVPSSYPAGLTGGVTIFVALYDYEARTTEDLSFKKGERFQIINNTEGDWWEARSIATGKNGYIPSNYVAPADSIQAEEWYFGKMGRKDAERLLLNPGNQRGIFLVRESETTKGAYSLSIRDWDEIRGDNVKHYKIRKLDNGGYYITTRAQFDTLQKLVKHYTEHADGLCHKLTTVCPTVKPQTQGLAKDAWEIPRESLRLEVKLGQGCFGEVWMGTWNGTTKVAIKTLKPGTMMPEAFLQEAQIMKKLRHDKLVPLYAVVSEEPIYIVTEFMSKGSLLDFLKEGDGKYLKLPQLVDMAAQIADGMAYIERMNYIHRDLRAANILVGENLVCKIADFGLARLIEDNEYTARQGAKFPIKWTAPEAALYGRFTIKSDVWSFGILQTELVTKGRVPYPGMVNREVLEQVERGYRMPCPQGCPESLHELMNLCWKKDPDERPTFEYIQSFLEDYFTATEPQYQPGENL
# T9 sequence (Q9UBF8 whole entry): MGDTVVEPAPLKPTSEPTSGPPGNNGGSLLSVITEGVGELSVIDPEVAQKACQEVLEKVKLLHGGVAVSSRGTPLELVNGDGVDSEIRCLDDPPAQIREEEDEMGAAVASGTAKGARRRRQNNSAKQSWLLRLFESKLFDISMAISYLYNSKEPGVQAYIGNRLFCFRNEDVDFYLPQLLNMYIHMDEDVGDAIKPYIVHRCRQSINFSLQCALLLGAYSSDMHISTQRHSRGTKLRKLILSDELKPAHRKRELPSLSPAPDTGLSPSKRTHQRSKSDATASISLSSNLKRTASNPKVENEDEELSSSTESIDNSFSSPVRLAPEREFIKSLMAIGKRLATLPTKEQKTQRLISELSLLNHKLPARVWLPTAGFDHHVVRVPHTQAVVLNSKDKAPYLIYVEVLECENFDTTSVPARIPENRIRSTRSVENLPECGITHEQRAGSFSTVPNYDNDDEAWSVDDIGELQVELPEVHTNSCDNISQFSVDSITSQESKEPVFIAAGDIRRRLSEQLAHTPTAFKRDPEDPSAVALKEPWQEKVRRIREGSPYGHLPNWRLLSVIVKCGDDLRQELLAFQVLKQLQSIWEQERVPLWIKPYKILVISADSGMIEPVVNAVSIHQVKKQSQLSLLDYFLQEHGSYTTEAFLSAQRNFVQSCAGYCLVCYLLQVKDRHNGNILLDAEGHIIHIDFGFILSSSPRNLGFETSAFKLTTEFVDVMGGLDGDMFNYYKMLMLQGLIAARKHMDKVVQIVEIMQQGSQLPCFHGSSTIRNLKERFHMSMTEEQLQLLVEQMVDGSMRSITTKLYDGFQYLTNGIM
# T1 sequence (Q13554 whole entry): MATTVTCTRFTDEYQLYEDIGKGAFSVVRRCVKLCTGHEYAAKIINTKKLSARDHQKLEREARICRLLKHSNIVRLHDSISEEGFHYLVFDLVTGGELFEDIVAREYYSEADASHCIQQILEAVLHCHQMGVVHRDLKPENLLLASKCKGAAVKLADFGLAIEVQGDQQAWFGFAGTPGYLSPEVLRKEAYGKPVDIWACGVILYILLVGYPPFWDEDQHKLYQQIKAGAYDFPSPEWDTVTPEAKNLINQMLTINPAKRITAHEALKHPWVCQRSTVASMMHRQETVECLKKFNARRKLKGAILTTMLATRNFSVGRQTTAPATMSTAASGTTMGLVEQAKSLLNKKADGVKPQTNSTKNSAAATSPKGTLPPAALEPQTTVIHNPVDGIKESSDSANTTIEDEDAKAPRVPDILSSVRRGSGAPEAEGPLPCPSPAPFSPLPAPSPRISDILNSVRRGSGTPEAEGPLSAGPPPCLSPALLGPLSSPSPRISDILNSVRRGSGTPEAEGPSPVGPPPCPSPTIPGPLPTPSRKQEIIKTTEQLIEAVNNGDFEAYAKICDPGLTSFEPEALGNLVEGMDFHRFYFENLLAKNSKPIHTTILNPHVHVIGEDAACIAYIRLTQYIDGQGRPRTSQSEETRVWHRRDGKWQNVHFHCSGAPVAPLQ
# T4 sequence (O43353 whole entry): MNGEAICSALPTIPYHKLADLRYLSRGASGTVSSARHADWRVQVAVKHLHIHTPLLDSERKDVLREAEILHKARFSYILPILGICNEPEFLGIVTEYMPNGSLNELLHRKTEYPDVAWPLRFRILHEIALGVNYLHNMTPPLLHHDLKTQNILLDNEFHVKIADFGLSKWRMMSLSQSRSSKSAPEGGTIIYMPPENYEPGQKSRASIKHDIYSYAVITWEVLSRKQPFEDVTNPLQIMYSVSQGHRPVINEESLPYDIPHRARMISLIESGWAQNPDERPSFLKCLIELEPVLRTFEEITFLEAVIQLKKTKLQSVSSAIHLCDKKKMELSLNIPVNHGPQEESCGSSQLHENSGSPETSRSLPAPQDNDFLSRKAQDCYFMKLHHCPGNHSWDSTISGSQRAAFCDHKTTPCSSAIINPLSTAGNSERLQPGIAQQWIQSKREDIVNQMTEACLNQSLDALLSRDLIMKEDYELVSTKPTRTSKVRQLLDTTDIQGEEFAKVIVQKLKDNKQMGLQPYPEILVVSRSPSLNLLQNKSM
SMILES,remaining binding at 1 µM [1] [%],remaining binding at 1 µM [2] [%],remaining binding at 1 µM [3] [%],remaining binding at 1 µM [4] [%],remaining binding at 1 µM [5] [%],remaining binding at 1 µM [6] [%],remaining binding at 1 µM [7] [%],remaining binding at 1 µM [8] [%],remaining binding at 1 µM [9] [%],remaining binding at 1 µM [10] [%],remaining binding at 1 µM [11] [%],remaining binding at 1 µM [12] [%],remaining binding at 1 µM ([13]; ABL1-nonphosphorylated) [%],remaining binding at 1 µM ([13]; ABL1-phosphorylated) [%],remaining binding at 1 µM [14] [%]
"CNc1nc(Nc2ccc(C(=O)N3CCOCC3)cc2OC)nc2[nH]cc(C#N)c12 [Example 1, 2-((2-methoxy-4-(morpholine-4-carbonyl)phenyl)amino)-4-(methylamino)-7H-pyrrolo[2,3-d]pyrimidine-5-carbonitrile]",62,100,98,100,90,37,12,78,61,88,100,82,92,88,78
"CC1(Nc2nc(Nc3cnn([C@H]4CCN(C5COC5)C[C@@H]4F)c3Cl)nc3[nH]cc(C#N)c23)CC1 [Example 52, 2-((5-chloro-1-((3S,4S)-3-fluoro-1-(oxetane-3-yl)piperidine-4-yl)-1H-pyrazole-4-yl)amino)((1-methylcyclopropyl)amino)-7H-pyrrolo[2,3-d]pyrimidine-5-carbonitrile]",57,10,49,61,36,0.3,0.25,9.6,60,93,98,71,6.4,1.8,100
"CCNc1nc(Nc2ccc(C(=O)N3CCC(N4CCOCC4)CC3)cc2OC)nc2[nH]cc(C(F)(F)F)c12 [Example 104, (4-((4-(ethylamino)-5-(trifluoromethyl)-7H-pyrrolo[2,3-d]pyrimidine-2-yl)amino)-3-methoxyphenyl)(4-morpholinopiperidine-1-yl)methanone]",81,100,73,100,100,49,1.4,90,99,98,100,96,91,63,100
